# Data published in publication PMC4496781, “Functional Roles of Aromatic Residues and Helices of Papiliocin in its Antimicrobial and Anti-inflammatory Activities” (Scientific Reports, 2015).
# Ends that are not written are not given here.
# Key:
# [1] = tested on: Bacillus subtilis; conditions: 16 h
# Protocol: (§1) MICs of the peptides against six standard bacteria and four multidrug-resistant bacteria were determined by a broth microdilution assay as described previously. […] Cytotoxicities against mammalian cells were measured against human RBCs, mouse macrophage-derived RAW264.7 cells, and fibroblast NIH-3T3 cells. The anti-inflammatory activities of the peptides were examined by inhibiting nitrite production in LPS-stimulated RAW264.7 cells.
# [2] = tested on: Eenterococcus faecalis; conditions: E, 16 h
# Protocol: as §1
# [3] = tested on: Escherichia coli; conditions: 16 h
# Protocol: as §1
# [4] = tested on: Pseudomonas aeruginosa; conditions: 16 h
# Protocol: as §1
# [5] = tested on: Salmonella typhimurium; conditions: murium, 16 h
# Protocol: as §1
# [6] = tested on: Staphylococcus aureus; conditions: 16 h
# Protocol: as §1
# [7] = tested on: MDRAB 12035(R); conditions: broth microdilution, 16 h; unit not given
# Protocol: (§2) We examined the antimicrobial activities of the peptides against multidrug-resistant bacterial strains, including four gram-negative species (S. typhimurium 8009(R), E. coli 1229(R), P. aeruginosa 2095(R), and A. baumannii 12035(R); Table 3).
# as §1
# [8] = tested on: MDREC 1229(R); conditions: 16 h
# Protocol: as §2, §1
# [9] = tested on: MDRPA 2095(R); conditions: 16 h
# Protocol: as §2, §1
# [10] = tested on: MDRST 8009(R); conditions: broth microdilution, 16 h; unit not given
# Protocol: as §2, §1
# [11] = tested on: gram-negative bacteria (E. coli, S. typhimurium, P. aeruginosa); conditions: for GM of the MIC values, gram-negative: 16 h; for Therapeutic Index (MHC/GM), gram-negative: ratio MHC (μM) over GM of MIC (μM)
# Protocol: (§3) This property is assessed by the therapeutic index which can be defined as a ratio of the […] against human hRBCs to the MIC against bacterial cells.
# as §1
# [12] = tested on: gram-positive bacteria (B. subtilis, E. faecalis, S. aureus); conditions: for GM of the MIC values, gram-positive: 16 h; for Therapeutic Index (MHC/GM), gram-positive: ratio MHC (μM) over GM of MIC (μM)
# Protocol: as §3, §1
Substance,"MIC, Bacillus subtilis [1]","MIC, Eenterococcus faecalis [2]","MIC, Escherichia coli [3]","MIC, Pseudomonas aeruginosa [4]","MIC, Salmonella typhimurium [5]","MIC, Staphylococcus aureus [6]","MIC, MDRAB 12035(R) [7]","MIC, MDREC 1229(R) [8]","MIC, MDRPA 2095(R) [9]","MIC, MDRST 8009(R) [10]","GM of the MIC values, gram-negative [11]","GM of the MIC values, gram-positive [12]","Therapeutic Index (MHC/GM), gram-positive [12]","Therapeutic Index (MHC/GM), gram-negative [11]"
RWKIAKKIEKVGRNVRDGIIKAGPAVAVVGQAATVVK-NH2 [Papiliocin-5A],64.0 µM,128 µM,0.250 µM,0.500 µM,0.500 µM,128 µM,0.500 µM,1.00 µM,1.00 µM,1.00 µM,0.417 µM,107 µM,1.87,
RFKIWKKIEKVGRNVRDGIIKA-NH2 [PapN-2F5W],8.00 µM,64.0 µM,1.00 µM,2.00 µM,2.00 µM,16.0 µM,4.00 µM,2.00 µM,2.00 µM,2.00 µM,1.67 µM,29.3 µM,,120
RWKIAKKIEKVGRNVRDGIIKA-NH2 [PapN-5A],16.0 µM,128 µM,1.00 µM,2.00 µM,2.00 µM,16.0 µM,8.00 µM,2.00 µM,8.00 µM,4.00 µM,1.67 µM,53.3 µM,3.75,120
RAKIFKKIEKVGRNVRDGIIKAGPAVAVVGQAATVVK-NH2 [Papiliocin-2A],64.0 µM,128 µM,0.250 µM,0.500 µM,0.500 µM,128 µM,0.500 µM,1.00 µM,1.00 µM,1.00 µM,0.417 µM,107 µM,1.87,
RAKIFKKIEKVGRNVRDGIIKA-NH2 [PapN-2A],32.0 µM,128 µM,2.00 µM,4.00 µM,4.00 µM,32.0 µM,8.00 µM,2.00 µM,4.00 µM,2.00 µM,3.33 µM,64.0 µM,3.13,60.0
